{"source": "paper PMC5778071", "about": "“Development of matrix metalloproteinase-targeted probes for lung inflammation detection with positron emission tomography” (Scientific Reports, 2018)", "origin": "cited, not measured here", "set-up": "method as in PMID 25822732", "settings": "cited from earlier work", "data": [{"smiles": "CC(C)C[C@H](CC(=O)NO)C(=O)N[C@@H](Cc1ccccc1)C(=O)N[C@@H](CCCCNC(=O)c1ccc([18F])cc1)C(N)=O", "note": "[^18F-FB-ML5]", "values": [{"measurement": "accumulation ratio of lung to liver", "value": "< 0.1"}]}]}
